We go through 16 compounds from patent US20110052776A1, “CHOCOLATE COMPOSITIONS HAVING IMPROVED FLAVOUR CHARACTERISTICS” (priority 2007, published 2011).

The subject of experiment [1] is expert panel members. The experiment is described as follows: Sucrose Equivalent Value (SEV) of pH 3.2 buffered sucrose solution, taste panel. The format is in vivo. The conditions noted are these: for SEV (%): 500 ppm of one potentiator in pH 3.2 buffered 5% sucrose solution; for effect on SEV of sucrose solutions, forms of 2,4-DHB: 500 ppm, pH 3.2 buffered solutions with 0%, 3%, 5%, 7% and 9% sucrose; for maximum sweetness attainable (SEV): pH 3.2 buffered 5% sucrose solution, dose response curve 0 to 1000 ppm; for SEV of solution containing 500 ppm 2,4-DHB and 500 ppm of a second sweetener potentiator: label = second potentiator, 5% sucrose solution. On the procedure: (§1) One method of measuring the perceived sweetness of a solution is to match it with a stock sucrose solution of known concentration. In the present experiments, the compound of interest is added at a predetermined concentration to a pH 3.2 buffered solution containing 5% sucrose. A number of expert panel members then taste the solution and compare it to a battery of stock sucrose solutions ranging from 3% to 15% at increments of 1%. Each panel member decides which sucrose solution is equisweet with the solution containing the compound of interest. The mean value is then reported as the SEV. Results are reported to 1 decimal place.
In accordance with this methodology, 3-HB was added to a pH 3.2 buffered solution containing 5% sucrose to produce solutions containing from 0 to 1000 ppm 3-HB in 100 ppm increments. […] From FIG. 1 it is apparent that as the dosage of 3-HB increases so does the sweetness of the resultant solution. However the effect is non-linear with each incremental addition having a diminishing effect. The maximum sweetness attainable would appear to be about 7.9% SEV (based on a 5% sucrose solution).
The same methodology as described in Example 6 was repeated with 2,4-DHB in place of 3-HB, to produce the dose response curve for 2,4-DHB (FIG. 2). […] The maximum attainable sweetness would appear to be about 6.7% SEV (based on a 5% sucrose solution).
500 ppm of a sweetener potentiator was added to a pH 3.2 buffered solution containing 5% sucrose and the SEV of the resultant solution determined.
500 ppm of the sweetener potentiator then was added to a 5% sucrose solution containing 500 ppm 3-HB to produce a series of solutions. […] The use of 500 ppm of 3-HB alone results in an SEV of 6.9% whereas in all cases but two (2,4-DHB and 3,4-DHB) the addition of a second sweetener potentiator results in a little change or even a decrease in SEV. This is highly surprising considering that all of the potentiators are shown to have SEVs greater than 5%.
The methodology was repeated to produce a series of solutions containing 500 ppm 2,4-DHB and 500 ppm of a second sweetener potentiator.
500 ppm of 3-HB, 500 ppm of 2,4-DHB and 500 ppm of 3,4-dihydroxybenzoic acid (3,4-DHB) were added to a pH 3.2 buffered solution containing 5% sucrose and the SEV determined. The results are shown in FIG. 7 together with other combinations of 3-HB, 2,4-DHB and 3,4-DHB for comparison. The solution containing the combination of 3-HB and 2,4-DHB (hatched) has a much higher SEV (8.7%) than the combination of either 3,4-DHB and 3-HB (7.6%) or the combination of 3,4-DHB and 2,4-DHB (6.8%). The three-way combination of the embodiment (hatched) is better still with an SEV of 9.8%.
Buffered solutions of pH 3.2 were prepared containing 0%, 3%, 5%, 7% and 9% sucrose. 500 ppm of 2,4-DHB acid, 500 ppm of the sodium salt of 2,4-DHB and 500 ppm of the potassium salt of 2,4-DHB were added individually to each of the sucrose solutions. The SEV for each of the solutions was then determined.
500 ppm of 3-aminobenzoic acid and 500 ppm of 4-aminobenzoic acid were individually added to separate pH 3.2 buffered solutions containing 5% sucrose and the SEVs of the resultant solutions were determined. The SEV of 3-aminobenzoic acid was about 7%, i.e., increased the sweetness intensity of 5% sucrose to about 7%. The SEV of 4-aminobenzoic acid was about 5.5-6%, i.e., increased the sweetness intensity of 5% sucrose to about 5.5-6%.

For experiment [2], the system named is panel member. Description: Sucrose reduction method versus 10% sucrose control, taste panel. The format is in vivo. The note with it: 1000 ppm used individually; control pH 3.2 10% sucrose. As to the method:
An alternative method of measuring perceived sweetness is to determine how much sucrose can be replaced through the use of the compound of interest without any Perceived loss of sweetness. In the present experiments the control was a pH 3.2 buffered solution containing 10% sucrose. The compound of interest is added at a predetermined concentration to a number of sucrose solutions containing from 5% to 10% sucrose at increments of 0.5%. Each panel member tastes each of the solutions, compares it to the control sample and decides which solutions are equisweet. For example, if the 8% sucrose solution containing the compound of interest is equisweet with the control, then the sucrose reduction achieved by the compound of interest is 20%.
A series of sucrose solutions were prepared containing 3-HB and 2,4-DHB at a combined concentration of 1000 ppm. Each solution was evaluated using the sucrose reduction method described above to determine how much sucrose could be replaced without noticeable loss of sweetness.
A series of sucrose solutions were prepared containing equal quantities of 3-HB and 2,4-DHB, at a combined concentration of 200, 400, 600, 800 and 1000 ppm. Each solution was evaluated using the sucrose reduction method described in Example 8 above to determine how much sucrose could be replaced without noticeable loss of sweetness.

For experiment [3] the following is noted: cited from earlier work.
In experiment [4] the test system is expert panel members. The experiment is described as follows: SEV of non-sucrose sweetener solutions (SEV about 5%) after addition of potentiators. The format is in vivo. The conditions noted are these: 500 ppm 3-HB alone versus with 500 ppm 2,4-DHB; pH 3.2. On the procedure: as §1
The SEV of each sweetener solution was then evaluated after the addition 500 ppm of 3-HB, the addition of 500 ppm of 2,4-DHB and the addition of both 500 ppm 3-HB and 2,4-DHB.

As to `O=C(O)c1ccc(O)c(O)c1O` [2,3,4-trihydroxybenzoic acid (2,3,4-THB), 2,3,4-trihydroxybenzoic acid], the “SEV (%)” value in experiment [1] is 5.4%. Regarding `O=C(O)c1cccc(O)c1O` [2,3-dihydroxybenzoic acid (2,3-DHB), 2,3-dihydroxybenzoic acid], the “SEV (%)” value in experiment [1] is given as 6.3%. `O=C(O)c1c(O)cc(O)cc1O` [2,4,6-trihydroxybenzoic acid (2,4,6-THB), 2,4,6-trihydroxybenzoic acid]: the “SEV (%)” value in experiment [1] stood at 5.4%. Turning to `O=C(O)c1ccc(O)cc1O` [2,4-DHB, 2,4-dihydroxybenzoic acid], the SEV in experiment [1] (400 ppm in pH 3.2 buffered 5% sucrose solution) was 6.5%. In addition, in experiment [1], the “SEV (%)” value amounted to 6.5%; the “effect on SEV of sucrose solutions, forms of 2,4-DHB” value was “enhances the sweetness of the sucrose solution in every case”; the “maximum sweetness attainable (SEV)” value is reported as “about 6.7 % SEV”. Besides, in experiment [1] (1000 ppm in pH 3.2 buffered 5% sucrose solution), the SEV is 6.7%. Also, the sucrose reduction in experiment [2] worked out at 15%. In addition, the “effect on the sweetness intensity of both sucralose and aspartame” value in experiment [3] (FIGS. 1 and 2 and Tables 1 and 2 of U.S. Pat. No. 6,461,658) is given as “slightly inhibitory effect”. The “length of time during which sucralose sweetness is perceived” value in experiment [3] (U.S. Pat. No. 6,461,658) was “significantly reducing”. Moreover, in experiment [3] (addition of 0.2% 2,4-DHB, Canadian Patent No. 1208966), the “effect on sweetness of a 5% sucrose solution” value is reported as “increase in sweetness”.

With `O=C(O)c1cc(O)ccc1O` [2,5-dihydroxybenzoic acid (2,5-DHB), 2,5-dihydroxybenzoic acid], the “SEV (%)” value in experiment [1] turned out to be 5.3%.

As to `O=C(O)c1c(O)cccc1O` [2,6-dihydroxybenzoic acid (2,6-DHB), 2,6-dihydroxybenzoic acid], the “SEV (%)” value in experiment [1] was 5.3%. As to `O=C(O)c1ccccc1O` [2-hydroxybenzoic acid (2-HB), 2-hydroxybenzoic acid], in experiment [1], the “SEV (%)” value worked out at 5.6%; the “SEV of solution containing 500 ppm 2,4-DHB and 500 ppm of a second sweetener potentiator” value came to 6.3%.

`O=C(O)c1cc(O)c(O)c(O)c1` [3,4,5-tryhydroxybenzoic acid (3,4,5-THB), 3,4,5-tryhydroxybenzoic acid]: the “SEV (%)” value in experiment [1] is recorded as 5.1%.

Turning to `O=C(O)c1ccc(O)c(O)c1` [3,4-dihydroxybenzoic acid (3,4-DHB), 3,4-dihydroxybenzoic acid], the “SEV (%)” value in experiment [1] worked out at 6.4%. On the same count and under the same terms, the result for `O=C(O)c1cc(O)cc(O)c1` [3,5-dihydroxybenzoic acid (3,5-DHB), 3,5-dihydroxybenzoic acid] reads 5.3%; that for `Nc1cccc(C(=O)O)c1` [3-aminobenzoic acid], “about 7%”. Still for that read-out and setting: the same measure for `Nc1ccc(C(=O)O)cc1` [4-aminobenzoic acid]: 5.5-6%. For the compound `O=C(O)c1ccc(O)cc1` [4-hydroxybenzoic acid (4-HB), 4-hydroxybenzoic acid], in experiment [1], the “SEV (%)” value turned out to be 5.2%; the “SEV of solution containing 500 ppm 2,4-DHB and 500 ppm of a second sweetener potentiator” value was 6.2%. On to `O=C(O)c1cccc(O)c1` [Example 3-HB, 3-hydroxybenzoic acid], for which, in experiment [1], the “SEV (%)” value came to 6.9% and the “maximum sweetness attainable (SEV)” value is given as “about 7.9 % SEV”. This compound also came in with a sucrose reduction in experiment [2] of 25%. In addition, in experiment [4], the “effect on sweetness of saccharin solution” value is “enhances the sweetness to a greater degree alone than in combination with 2,4-DHB”. Turning to `O=C([O-])c1ccc(O)cc1O.[K+]` [potassium salt of 2,4-DHB], the “effect on SEV of sucrose solutions, forms of 2,4-DHB” value in experiment [1] is recorded as “enhances the sweetness of the sucrose solution in every case”. The same measure, in the same setting: the result for `O=C([O-])c1ccc(O)cc1O.[Na+]` [sodium salt of 2,4-DHB] reads “enhances the sweetness of the sucrose solution in every case”.
